Assay [1] has as its target T1, proteasome in Molt-4 cells (human leukemia) (Homo sapiens, UniProt P20618+P28074).
T1 sequence (P28074 60-263): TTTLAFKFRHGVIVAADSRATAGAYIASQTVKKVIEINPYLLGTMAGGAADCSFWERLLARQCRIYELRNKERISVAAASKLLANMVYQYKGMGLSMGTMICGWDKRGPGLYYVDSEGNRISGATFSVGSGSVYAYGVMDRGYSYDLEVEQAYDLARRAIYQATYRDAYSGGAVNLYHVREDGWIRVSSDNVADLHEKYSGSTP
T1 sequence (P20618 29-241): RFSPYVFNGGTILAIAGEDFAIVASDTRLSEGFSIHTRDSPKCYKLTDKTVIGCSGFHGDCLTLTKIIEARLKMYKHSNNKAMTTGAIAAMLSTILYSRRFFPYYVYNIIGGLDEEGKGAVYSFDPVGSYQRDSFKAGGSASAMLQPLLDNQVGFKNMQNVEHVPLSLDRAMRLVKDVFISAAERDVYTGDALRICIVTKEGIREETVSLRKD
In kind it is cell-based. The procedure, abridged:
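Intact Molt-4 cells (6×10^6 cells/mL) in HEPES-buffered saline were preincubated with inhibitor 15 min at 37 °C, then given cell-permeable MeOSuc-FLF-AFC at 25 μM final.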

Assay [2] deals with T2, 20S Human Erythrocyte Proteasome (HEP) (Homo sapiens, UniProt P20618+P28074).
T2 construct: 20S Human Erythrocyte Proteasome (HEP), purchased from Immatics Biotechnologies Inc; purchased Immatics Biotechnologies Inc., Tübingen, Germany; host or cells: human erythrocytes (natural source)
Kind of assay: Chymotrypsin-like activity of 20S Human Erythrocyte Proteasome (HEP), IC50 determination. The assay is classed as biochemical. As to conditions: assay of Example C, inhibition of HEP. The procedure, abridged:
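20S proteasome at 0.2 μg/mL (about 0.6 nM catalytic sites) in 20 mM Tris with 0.04% SDS, preincubated 15 min at 37° C with inhibitor before Suc-LLVY-AMC (100 μM final). AMC fluorescence read in the linear range; triplicates, IC50 from concentration series.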

Setting [3] is: assay of Example E, inhibition of MOLT4; read-out: MOLT4 (EC50).

Structures can show the parent of a compound that is named as a salt. Where two headings read alike, the source gives them in different places.

As to `CCCCc1ccc(C(=O)N[C@@H](CNC(=O)c2cccnc2)C(=O)N[C@@H](CC(C)C)B2O[C@@H]3C[C@@H]4C[C@@H](C4(C)C)[C@]3(C)O2)cc1` [D.24.15, 4-butylbenzamide, N-[(1S)-1-[[[(1R)-1-[(3aS,4S,6S,7aR)-hexahydro-3a,5,5-trimethyl-4,6-methano-1,3,2-benzodioxaborol-2-yl]-3-methylbutyl]amino]carbonyl]-2-(nicotinonylamino)ethyl]-], the concentration for a half-maximal effect (EC50) (as a rule, the midpoint of the concentration-response curve) in assay [1] (setting [3]) is less than 0.2 µM. In addition, in assay [2], the concentration for half-maximal inhibition (IC50) (in general, the midpoint of a concentration-inhibition curve) is less than 0.01 µM.
With `CCCCc1ccc(C(=O)N[C@@H](CC(N)=O)C(=O)N[C@@H](CC(C)C)B(O)O)cc1` [E.1.28, Boronic acid, [(1R)-1-[[(2S)-3-carbamoyl-2-[4-butyl(benzoyl)amino]-1-oxopropyl]amino]-3-methylbutyl]], the EC50 in assay [1] (setting [3]) was in the range of 0.2 to 2 µM. In assay [2], this molecule came in with an IC50 of less than 0.01 µM.
Taken in the same sequence, the figures for `CC(C)C[C@H](NC(=O)[C@H](CCCNC(=N)N[N+](=O)[O-])NC(=O)c1cccc(NC(=O)OC(C)(C)C)c1)B1O[C@@H]2C[C@@H]3C[C@@H](C3(C)C)[C@]2(C)O1` [D.1.5, 3-[(1,1-dimethylethoxy)carbonylamino]benzamide, N-[(1S)-1-[[[(1R)-1-[(3aS,4S,6S,7aR)-hexahydro-3a,5,5-trimethyl-4,6-methano-1,3,2-benzodioxaborol-2-yl]-3-methylbutyl]amino]carbonyl]-4-[[imino(nitroamino)methyl]amino]butyl]-] were 0.2 to 2 µM and less than 0.01 µM.
As for `CCCCc1ccc(C(=O)N[C@@H](CNC(=O)c2cccnc2)C(=O)N[C@@H](CC(C)C)B(O)O)cc1` [E.5.18, Boronic acid, [(1R)-1-[[(2S)-3-(nicotinoylamino)-2-[(4-butylbenzoylamino)]-1-oxopropyl]amino]-3-methylbutyl]], in assay [1] (setting [3]), the concentration for a half-maximal effect (EC50) is less than 0.2 µM. Also, the IC50 in assay [2] was less than 0.01 µM.
Taken in the same sequence, the figures for `CC(C)C[C@H](NC(=O)[C@H](CCCNC(=N)N[N+](=O)[O-])NC(=O)c1cccc(F)c1F)B(O)O` [E.2.11, Boronic acid, [(1R)-1-[[(2S)-5-[[imino(nitroamino)methyl]amino]-2-[(2,3-difluorobenzoyl)amino]-1-oxopentyl]amino]-3-methylbutyl]] were more than 10 µM and less than 0.01 µM.
Taken in the same sequence, the figures for “Boronic acid, [(1R)-1-[[(2S)-5- [[imino(nitroamino)methyl]amino]-2-[(hexahydro- 2,5-methanopentalene-3a(1H)-carbonyl)amino]-1- oxopentyl]amino]-3-methylbutyl] [E.2.24]” were more than 10 µM and less than 0.01 µM.
Consider `CCCCCCCCC(C)(C)C(=O)N[C@H](C(=O)N[C@@H](CC(C)C)B(O)O)[C@@H](C)O` [E.3.6, Boronic acid, [(1R)-1-[[(2S,3R)-3-hydroxy-2-[(2,2 dimethyl-decanoyl)amino]-1-oxobutyl]amino]-3-methylbutyl]], for which the half-maximal effective concentration (EC50) in assay [1] (setting [3]) was less than 0.2 µM. The molecule further returned a 50% inhibitory concentration (IC50) in assay [2] of less than 0.01 µM.
Taken in the same sequence, the figures for `CC(C)C[C@H](NC(=O)[C@H](CCCNC(=N)N[N+](=O)[O-])NC(=O)[C@@H](C)c1ccccc1)B(O)O` [E.2.16, Boronic acid, [(1R)-1-[[(2S)-5-[[imino(nitroamino)methyl]amino]-2-[((2S)-2-phenylpropanoyl)amino]-1-oxopentyl]amino]-3-methylbutyl]] were more than 10 µM and less than 0.01 µM.
Consider `CCCCc1ccc(C(=O)N[C@@H](CNC(=O)Cc2ccc(OC)c(OC)c2)C(=O)N[C@@H](CC(C)C)B2O[C@@H]3C[C@@H]4C[C@@H](C4(C)C)[C@]3(C)O2)cc1` [D.24.14], for which the EC50 in assay [1] (setting [3]) is less than 0.2 µM. The molecule further came in with an IC50 in assay [2] of less than 0.01 µM.
Turning to `CC(C)C[C@H](NC(=O)[C@H](CCCNC(=N)N[N+](=O)[O-])NC(=O)CCCCc1ccc(F)cc1)B1O[C@@H]2C[C@@H]3C[C@@H](C3(C)C)[C@]2(C)O1` [D.3.124, 5-(4-Fluorophenyl)-pentanamide,N-[(1S)-1-[[[(1R)-1-[(3aS,4S,6S,7aR)-hexahydro-3a,5,5-trimethyl-4,6-methano-1,3,2-benzodioxaborol-2-yl]-3-methylbutyl]amino]carbonyl]-4-[[imino(nitroamino)methyl]amino]butyl]], the EC50 in assay [1] (setting [3]) is less than 0.2 µM. This molecule also came in with a concentration for half-maximal inhibition (IC50) in assay [2] of less than 0.01 µM.
Taken in the same sequence, the figures for `CCCCCc1ccc(S(=O)(=O)N[C@@H](CCCNC(=N)N[N+](=O)[O-])C(=O)N[C@@H](CC(C)C)B2O[C@@H]3C[C@@H]4C[C@@H](C4(C)C)[C@]3(C)O2)cc1` [D.4.8, 4-Pentyl-benzenesulfonamide, N-[(1S)-1-[[[(1R)-1-[(3aS,4S,6S,7aR)-hexahydro-3a,5,5-trimethyl-4,6-methano-1,3,2-benzodioxaborol-2-yl]-3-methylbutyl]amino]carbonyl]-4-[[imino(nitroamino)methyl]amino]butyl]] were less than 0.2 µM and less than 0.1 µM.
Taken in the same sequence, the figures for `CCCOc1ccc(C(=O)N[C@H](C(=O)N[C@@H](CC(C)C)B(O)O)[C@@H](C)O)cc1` [E.3.8] were less than 0.2 µM and less than 0.01 µM.
Taken in the same sequence, the figures for `C/C(=C\c1ccccc1)C(=O)N[C@@H](CCCNC(=N)N[N+](=O)[O-])C(=O)N[C@@H](CC(C)C)B(O)O` [D.7.2, Boronic acid, [(1R)-1-[[(2S)-5-[[imino(nitroamino)methyl]amino]-2-[((E)-2-methyl-3-phenylacryl)amino]-1-oxopentyl]amino]-3-methylbutyl]] were 2 to 10 µM and less than 0.01 µM.
On to `CCCCc1ccc(C(=O)N[C@@H](CNC(=O)c2cc(C)nn2C)C(=O)N[C@@H](CC(C)C)B(O)O)cc1` [E.5.29, Boronic acid, [(1R)-1-[[(2S)-3-(4-(1,3-dimethyl-1H-pyrazole-5-carbonylamino]-2-[(4-butylbenzoyl)amino]-1-oxopropyl]amino]-3-methylbutyl] hydrochloride], for which, in assay [1] (read-out: MOLT4 (EC50); assay of Example E, inhibition of MOLT4), the EC50 is less than 0.2 µM. Besides, the half-maximal inhibitory concentration (IC50) in assay [2] is less than 0.01 µM.
Consider `CC(C)C[C@H](NC(=O)[C@H](CCCNC(=N)N[N+](=O)[O-])NC(=O)CCc1cccs1)B(O)O` [E.1.12, Boronic acid, [(1R)-1-[[(2S)-5-[[imino(nitroamino)methyl]amino]-2-[(3-thiophen-2-yl-propanoyl)amino]-1-oxopentyl]amino]-3-methylbutyl]], for which, in assay [1] (setting [3]), the 50% effective concentration (EC50) was more than 10 µM. The molecule also returned an IC50 in assay [2] of less than 0.01 µM.
Taken in the same sequence, the figures for `CC(C)C[C@H](NC(=O)[C@H](CCCNC(=N)N[N+](=O)[O-])NC(=O)CCCCCO)B1O[C@@H]2C[C@@H]3C[C@@H](C3(C)C)[C@]2(C)O1` [D.3.192, 6-hydroxyhexanamide, N-[(1S)-1-[[[(1R)-1-[(3aS,4S,6S,7aR)-hexahydro-3a,5,5-trimethyl-4,6-methano-1,3,2-benzodioxaborol-2-yl]-3-methylbutyl]amino]carbonyl]-4-[[imino(nitroamino)methyl]amino]butyl]] were 2 to 10 µM and less than 0.1 µM.
Taken in the same sequence, the figures for `CCCCCCCCCCCC(=O)N[C@@H](CCCNC(=N)N[N+](=O)[O-])C(=O)N[C@@H](CC(C)C)B(O)O` [E.2.12, Boronic acid, [(1R)-1-[[(2S)-5-[[imino(nitroamino)methyl]amino]-2-[(dodecanoyl)amino]-1-oxopentyl]amino]-3-methylbutyl]] were less than 0.2 µM and less than 0.01 µM.
As for `CC(C)=CCC[C@@H](C)CC(=O)N[C@@H](CCCNC(=N)N[N+](=O)[O-])C(=O)N[C@@H](CC(C)C)B(O)O` [D.7.25, Boronic acid, [(1R)-1-[[(2S)-5-[[imino(nitroamino)methyl]amino]-2-[((3R)-3,7-dimethyloct-6-enoyl)amino]-1-oxopentyl]amino]-3-methylbutyl]], the concentration giving a half-maximal response (EC50) in assay [1] (setting [3]) is 2 to 10 µM. For the same molecule, in assay [2], the IC50 is less than 0.01 µM.
On to `CC(C)C[C@H](NC(=O)[C@@H](NC(=O)c1cnccn1)[C@@H](C)O)B(O)O` [E.4.1, Boronic acid, [(1R)-1-[[(2S,3R)-3-hydroxy-2-[(2-pyrazinecarbonyl)amino]-1-oxobutyl]amino]-3-methylbutyl]], for which, in assay [1] (setting [3]), the EC50 was in the range of 0.2 to 2 µM. The IC50 in assay [2] is less than 0.1 µM.
Taken in the same sequence, the figures for `CC(C)C[C@H](NC(=O)[C@H](CCCNC(=N)N[N+](=O)[O-])NC(=O)CCCCCCCCCN1C(=O)c2ccccc2C1=O)B1O[C@@H]2C[C@@H]3C[C@@H](C3(C)C)[C@]2(C)O1` [D.2, 10-(1,3-Dioxo-1,3-dihydro-isoindol-2-yl)-decanamide, N-[(1S)-1-[[[(1R)-1-[(3aS,4S,6S,7aR)-hexahydro-3a,5,5-trimethyl-4,6-methano-1,3,2-benzodioxaborol-2-yl]-3-methylbutyl]amino]carbonyl]-4-[[imino(nitroamino)methyl]amino]butyl]-;] were less than 0.2 µM and less than 0.01 µM.
Taken in the same sequence, the figures for `CC(C)C[C@H](NC(=O)[C@H](CCCNC(=N)N[N+](=O)[O-])NC(=O)COc1ccc(Br)cc1)B(O)O` [E.2.77, Boronic acid, [(1R)-1-[[(2S)-5-[[imino(nitroamino)methyl]amino]-2-[[2-(4-bromophenoxy)acetyl]amino]-1-oxopentyl]amino]-3-methylbutyl]] were 2 to 10 µM and less than 0.01 µM.

The record behind these values is patent publication US8546608B2, “Proteasome inhibitors and methods of using the same” (Cephalon, Inc., priority 2003, dated 2013).
